Measured values reported in patent US20040115249A1, “Ionic compounds of quaternary ammonium cations with anions of preservation acids, preparation thereof, and use thereof for preservation” (priority 2002, published 2004).

Test system: microorganisms from different sectors (molds, yeasts, bacteria)
Source text: The product obtained in example 2 was used in a test of antimicrobial activity.

## n-alkyldimethylethylbenzylammonium Sorbate [Example 2]
  minimum inhibitory concentrations: Very low
